Values joined by “and” are separate entries in the source; they are usually repeats but may differ in a detail not shown here. Equal entries are not always repeated.
Legend:
[1] = cell cytotoxicity assay (MTT); type: cell-based; conditions: human, 50% cytotoxicity concentration, Huh7 (NS3-5B) cells
Procedure: To determine if the compounds were cytotoxic to Huh7 (NS3-5B) cells, the cells (1 × 10^4 cells per well) were plated on 96-well microtiter plates and were incubated at 37 °C in 5% CO2 overnight. Various concentrations of the compounds were added to the wells. 48 h later, 10 μL of MTT (M2128, Sigma, Shanghai, China) were added to each well and incubated at 37 °C for 4 h. One-hundred microliters of MTT buffer (10% SDS + 5% isobutyl alcohol + 10 mmol/L HCl) were added overnight, and the optical density readings were measured by colorimeter at 580 and 680 nm.

HCV NS3/4A protease = target: T1, HCV NS3/4A protease (Hepatitis C virus genotype 1b, UniProt O92972); assay: HCV NS3/4A protease assay (SensoLyte 490 kit); conditions: inhibition percentage at 50 μM in biochemical protease assay, mean of duplicate wells
T1 construct: HCV NS3/4A protease diluent (10 ng, 10 μL); purchased AnaSpec 71126 (assay kit)
Procedure: A SensoLyte® 490 HCV Protease Assay Kit (AnaSpec, Cat#71126) was used for screening HCV protease inhibitors. The test compounds (100 nL of 200× final concentration, prepared by the ECHO liquid handler (ECHO, Labcyte, CA, USA)) and HCV NS3/4A protease diluent (10 ng, 10 μL) were added into a 384-well black microplate (Corning #3573). The known HCV NS3/4A protease inhibitor (Ac-DEDif-EchaC, AnaSpec Cat#25346) was used as a control. The plate was incubated at room temperature for enzymatic reaction for 10 min. In the meantime, the HCV NS3/4A protease substrate solution was also incubated at the same temperature. The reaction was initiated by adding 10 μL of HCV NS3/4A protease substrate. The reagents were completely mixed by shaking the plate gently for 30–60 s. For the kinetic reading, the fluorescence intensity at Ex/Em = 340 nm/490 nm was immediately measured, and the data was recorded every 2 min for 30 min.

[2] = set-up: method as in SPECS; conditions: values provided by vendor; ref SPECS; cited from earlier work
[3] = set-up: method as in SPECS; conditions: values provided by vendor; ref SPECS; cited from earlier work; remark: listed apart in the source
[4] = system: HCV replicon, Huh7 (NS3-5B) cells; assay: cell-based HCV replicon assay (luciferase); set-up: species or system Hepatitis C virus genotype 1b; conditions: for IC50: genotype 1b, Huh7 (NS3-5B) cells, 48 h incubation, luciferase readout; for SI (selectivity index): ratio of CC50/IC50
Procedure: Huh7 (NS3-5B) cells correspond to a stable cell line transfected with HCV NS3-5B genotype 1b. The cells were seeded (1 × 10^4 cells per well) in Dulbecco’s Modified Eagle Medium (DMEM) supplemented with 10% fetal bovine serum, 2 mM glutamine, penicillin (100 IU/mL)/streptomycin (100 μg/mL), 1× nonessential amino acids and 0.5 mg/mL G418 in 96-well plates overnight. Compounds were diluted and added to each well. Each concentration was measured in duplicate. After 48 h of incubation, 100 μL of Steady-Glo Luciferase buffer (E2550, Promega, Beijing, China) was added to each well and shaken for 10 min, and the results were read on plate reader (ENVISION, PerkinElmer, Shanghai, China). The IC50 values were calculated by fitting with the parameter of the Hill equation.

T1 sequence (O92972 1658-1711): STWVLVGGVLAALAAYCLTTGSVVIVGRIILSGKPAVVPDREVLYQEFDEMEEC
T1 sequence (O92972 1027-1657): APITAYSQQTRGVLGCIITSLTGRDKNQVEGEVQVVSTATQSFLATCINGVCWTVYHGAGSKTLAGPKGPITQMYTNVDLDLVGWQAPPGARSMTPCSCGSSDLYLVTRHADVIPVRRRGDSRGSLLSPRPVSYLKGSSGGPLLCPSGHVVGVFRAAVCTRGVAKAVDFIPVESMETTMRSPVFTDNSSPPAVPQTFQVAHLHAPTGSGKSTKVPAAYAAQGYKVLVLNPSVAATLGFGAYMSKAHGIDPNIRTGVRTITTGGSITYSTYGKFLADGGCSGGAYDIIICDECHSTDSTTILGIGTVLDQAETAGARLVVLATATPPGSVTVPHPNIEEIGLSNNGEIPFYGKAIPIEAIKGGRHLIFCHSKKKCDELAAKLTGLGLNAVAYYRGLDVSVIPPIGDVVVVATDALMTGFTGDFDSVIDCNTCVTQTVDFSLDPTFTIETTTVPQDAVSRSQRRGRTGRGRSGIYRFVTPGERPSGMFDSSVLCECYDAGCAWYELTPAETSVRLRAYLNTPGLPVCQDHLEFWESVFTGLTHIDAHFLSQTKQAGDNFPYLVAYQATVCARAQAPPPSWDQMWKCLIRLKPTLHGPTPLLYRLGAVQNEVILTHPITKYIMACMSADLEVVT

Structure (SMILES)	CC50 at 48 h [1] [µM]	inhibition at 50 µM (HCV NS3/4A protease) [%]	LogP [2]	LogS [3]	IC50 ([4]; Hepatitis C virus, Huh-7, 48 h) [µM]	SI (selectivity index) [4]	IC50 [4]
O=C(N/N=C/c1ccc(O)cc1O)c1[nH]nc2c1CCCC2 [Compound 1]	0.46	96.7	0.27	−3.01	4.69	0.10	
O=C(NC(C(=O)N/N=C/c1ccc(O)cc1O)c1n[nH]c(=O)c2ccccc12)c1ccccc1 (stereo not shown) [Compound 2]	> 50	77.9	1.95	−3.90	11.2	>4.46	
Cc1ccc(O)c(/C=N/NC(=O)C2C(=O)NCC2c2ccccc2)c1 (stereo not shown) [Compound 3]	> 50		2.75	−3.69	13.4	>3.73	
COc1ccc(/C=N/NC(=O)c2ccc(O)cc2O)cc1O [Compound 4]	> 50	56.9	2.2	−2.48	15.3	>3.27	
COc1cccc(/C=N/NC(=O)c2cc3ccccc3nc2C)c1O [Compound 5]	> 50		3.17	−4.05	3		3.01 µM
O=C(CSc1nnc(CNc2ccccc2)n1-c1ccc(Cl)cc1Cl)N/N=C/c1c2ccccc2cc2ccccc12 [Compound 6]	14.8	48.1	7.08		5.04	2.94	
CCC(C)c1ccc(-c2cc(C(=O)N/N=C/c3cccnc3)c3ccccc3n2)cc1 (stereo not shown) [Compound 7]	11.8	64.3	5.84	−5.53	4.14	2.85	
NC(=S)N/N=C/c1cccc(O)c1O [Compound 8]	1.12		1.51	−1.89	6.23	0.18	
NC(=S)N/N=C/c1ccc(O)c(O)c1 [Compound 9]		33.7	1.53	−1.03			
O=C1c2ccccc2C(=O)N1/N=C/c1cccc(O)c1O [Compound 10]	> 50		2.18	−2.5	7.07	>7.07	
C=CCc1cccc(/C=N/c2ccc(OC)cc2)c1O [Compound 11]	> 50		4.43	−4.16	< 10		5.1 µM and 5.14 µM
Oc1ccc2cc(Br)ccc2c1/C=N/c1nc[nH]n1 [Compound 12]	> 50	53	3.23	−2.67	16.1	>3.11	
COc1ccc(-c2cc(C(=O)Nc3ccc(S(=O)(=O)Nc4nccs4)cc3)c3ccccc3n2)c(OC)c1 [Compound 14]	> 50		5.1	−7.55	20.7	>2.42	
CCCCC(CC)C(=O)Nc1nnc(Cc2ccc(OC)cc2)s1 (stereo not shown) [Compound 15]	> 50	41.8	4.57	−5.64	28.2	>1.77	
O=C(COC(=O)c1cccc(N2C(=O)C3C4c5ccccc5C(c5ccccc54)C3C2=O)c1)c1ccc(Br)cc1 (stereo not shown) [Compound 16]	> 50		4.48	−8.04	9.42	>5.31	
